Where “and” joins values, the source holds several entries; their conditions need not be identical. Identical values can stand only once. Inconclusive results are not listed.

This assay concerns nude mice, LX-1 lung xenograft intrarenal, tumor weight T/C. In words: NCI In Vivo Anticancer Drug Screen. Data for tumor model Human Lung LX-1 Xenograft (intrarenal inoculation) in NU/NU Swiss (nude) mice. The following applies: endpoint: mean tumor weight change, higher = larger tumour. In outline: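 Tumor-bearing mice receive test compound or vehicle; tumor size is then measured in each group. The treated value is divided by the vehicle value to give T/C.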

Setting [1] is: dose: 100.0 mg/kg/injection, schedule: Q01DX010 (sc), vehicle: saline.
Where [2] appears, read: dose: 50.0 mg/kg/injection, schedule: Q04DX003 (sc), vehicle: saline with Tween-80.
[3] abbreviates: dose: 100.0 mg/kg/injection, schedule: Q04DX003 (sc), vehicle: saline with Tween-80.
Where [4] appears, read: dose: 400.0 mg/kg/injection, schedule: Q04DX003 (sc), vehicle: saline with Tween-80.
Setting [5] is: dose: 300.0 mg/kg/injection, schedule: Q04DX003 (sc), vehicle: saline.
Setting [6] is: dose: 100.0 mg/kg/injection, schedule: Q01DX010 (sc), vehicle: saline with Tween-80.
Setting [7] is: dose: 300.0 mg/kg/injection, schedule: Q04DX003 (sc), vehicle: saline with Tween-80.
The mark [8] stands for this setting: dose: 600.0 mg/kg/injection, schedule: Q04DX003 (sc), vehicle: saline with Tween-80.
The mark [9] stands for this setting: dose: 1200.0 mg/kg/injection, schedule: Q04DX003 (sc), vehicle: saline with Tween-80.
The mark [10] stands for this setting: dose: 2400.0 mg/kg/injection, schedule: Q04DX003 (sc), vehicle: saline with Tween-80.
The mark [11] stands for this setting: dose: 150.0 mg/kg/injection, schedule: Q04DX003 (sc), vehicle: water.
[12] abbreviates: dose: 300.0 mg/kg/injection, schedule: Q04DX003 (sc), vehicle: water.
Setting [13] is: dose: 600.0 mg/kg/injection, schedule: Q04DX003 (sc), vehicle: water.
[14] abbreviates: dose: 1200.0 mg/kg/injection, schedule: Q04DX003 (sc), vehicle: water.

On to `CC1CN1P1(N2CC2C)=NP(N2CC2C)(N2CC2C)=NP(N2CC2C)(N2CC2C)=N1` (configuration not stated), for which the T/C runs as follows: (dose: 50.0 mg/kg/injection, schedule: Q01DX010 (sc), vehicle: saline) 47 % of control and 60 % of control and 67 % of control; under setting [1], 14 % of control and 15 % of control and 25 % of control.

`CC1=C(/C=C/C(C)=C/C=C/C(C)=C/CO)C(C)(C)CCC1`: the T/C is 105 % of control under setting [2], 150 % of control under setting [3] and 111 % of control under setting [4].

As to `CN(N=O)C(=O)N[C@@H](C=O)[C@@H](O)[C@H](O)[C@H](O)CO`, the T/C is 32 % of control (dose: 75.0 mg/kg/injection, schedule: Q04DX003 (sc), vehicle: other); 39 % of control (dose: 75.0 mg/kg/injection, schedule: Q04DX003 (sc), vehicle: saline); 10 % of control (dose: 150.0 mg/kg/injection, schedule: Q04DX003 (sc), vehicle: other); 22 % of control (dose: 150.0 mg/kg/injection, schedule: Q04DX003 (sc), vehicle: saline); -56 % of control under setting [5].

Regarding `CN1c2c(nc(N)[nH]c2=O)NCC1CCNc1ccc(C(=O)NC(CCC(=O)O)C(=O)O)cc1` (configuration not stated), the T/C runs as follows: under setting [1], 82 % of control; (dose: 200.0 mg/kg/injection, schedule: Q01DX010 (sc), vehicle: saline) 36 % of control and 41 % of control; (dose: 400.0 mg/kg/injection, schedule: Q01DX010 (sc), vehicle: saline) 11 % of control and 36 % of control; (dose: 800.0 mg/kg/injection, schedule: Q01DX010 (sc), vehicle: saline) 11 % of control; (dose: 1600.0 mg/kg/injection, schedule: Q01DX010 (sc), vehicle: saline) 27 % of control.

For `OC(CCl)CN1CC[N+]2(CC1)CC[N+]1(CCN(CC(O)CCl)CC1)CC2` (configuration not stated), the T/C by setting is: (dose: 128.0 mg/kg/injection, schedule: Q01DX010 (sc), vehicle: water) 78 % of control; (dose: 256.0 mg/kg/injection, schedule: Q01DX010 (sc), vehicle: water) 59 % of control.

Take `O=C(Nc1nncs1)c1ccncc1`: the T/C reads like this: (dose: 50.0 mg/kg/injection, schedule: Q01DX010 (sc), vehicle: saline with Tween-80) 115 % of control; under setting [6], 91 % of control.

On to `O=C(Nc1ccccc1C(=O)O)c1cc([N+](=O)[O-])cc([N+](=O)[O-])c1`, for which the T/C is 86 % of control under setting [2]; 86 % of control under setting [3]; 100 % of control (dose: 200.0 mg/kg/injection, schedule: Q04DX003 (sc), vehicle: saline with Tween-80); 64 % of control under setting [4].

In the case of `COC(=O)C[C@](O)(CCC(C)(C)O)C(=O)O[C@@H]1C(OC)=C[C@]23CCCN2CCc2cc4c(cc2[C@H]13)OCO4`, the T/C reads like this: (dose: 0.63 mg/kg/injection, schedule: Q04DX003 (sc), vehicle: saline) 115 % of control; (dose: 1.25 mg/kg/injection, schedule: Q04DX003 (sc), vehicle: saline) 110 % of control; (dose: 2.5 mg/kg/injection, schedule: Q04DX003 (sc), vehicle: saline) 95 % of control; (dose: 5.0 mg/kg/injection, schedule: Q04DX003 (sc), vehicle: saline) 102 % of control.

Regarding `Nc1nc2c(ncn2C2OC(CO)C(O)C2O)c(=O)[nH]1` (configuration not stated), the T/C runs as follows: under setting [7], 50 % of control; under setting [8], 54 % of control; under setting [9], 42 % of control; under setting [10], 46 % of control.

In the case of `NC(=O)c1ncn(C2OC(CO)C(O)C2O)n1` (configuration not stated), the T/C under setting [5] is 85 % of control; the T/C (dose: 600.0 mg/kg/injection, schedule: Q04DX003 (sc), vehicle: saline) is 95 % of control; the T/C (dose: 1200.0 mg/kg/injection, schedule: Q04DX003 (sc), vehicle: saline) was 42 % of control.

Consider `ClCCCCCCCCCCc1ccccc1`, for which the T/C is 260 % of control (dose: 100.0 mg/kg/injection, schedule: Q01DX010 (sc), vehicle: Klucel (hydroxypropylcellulose) (HPC)); 94 % of control (dose: 200.0 mg/kg/injection, schedule: Q01DX010 (sc), vehicle: Klucel (hydroxypropylcellulose) (HPC)); 71 % of control (dose: 400.0 mg/kg/injection, schedule: Q01DX010 (sc), vehicle: Klucel (hydroxypropylcellulose) (HPC)); 52 % of control (dose: 800.0 mg/kg/injection, schedule: Q01DX010 (sc), vehicle: Klucel (hydroxypropylcellulose) (HPC)).

With `CC(C)[C@](O)(C(=O)OCC1=CCN2CC[C@@H](O)[C@@H]12)[C@H](C)O`, the T/C is 80 % of control under setting [11], 91 % of control under setting [12], 82 % of control under setting [13] and 70 % of control under setting [14].

As for `Clc1ccc(CN2COc3c(ccc4cccnc34)C2)cc1Cl`, the T/C was 110 % of control under setting [6]; 87 % of control (dose: 200.0 mg/kg/injection, schedule: Q01DX010 (sc), vehicle: saline with Tween-80); 97 % of control (dose: 400.0 mg/kg/injection, schedule: Q01DX010 (sc), vehicle: saline with Tween-80); 110 % of control (dose: 800.0 mg/kg/injection, schedule: Q01DX010 (sc), vehicle: saline with Tween-80).

For the compound `COc1ccc(-c2csc(=[N+]3CCCCC3)s2)cc1`, the T/C reads like this: (dose: 1.56 mg/kg/injection, schedule: Q04DX003 (sc), vehicle: water) 91 % of control; (dose: 3.12 mg/kg/injection, schedule: Q04DX003 (sc), vehicle: water) 84 % of control; (dose: 6.25 mg/kg/injection, schedule: Q04DX003 (sc), vehicle: water) 72 % of control; (dose: 12.5 mg/kg/injection, schedule: Q04DX003 (sc), vehicle: water) 80 % of control.

As to `COc1cc(Cc2nccc3cc(OC)c(OC)cc23)c(C(C)=O)c(OC)c1`, the T/C was 78 % of control (dose: 40.0 mg/kg/injection, schedule: Q01DX010 (sc), vehicle: saline); 57 % of control (dose: 80.0 mg/kg/injection, schedule: Q01DX010 (sc), vehicle: saline); 67 % of control (dose: 160.0 mg/kg/injection, schedule: Q01DX010 (sc), vehicle: saline).

For `NC(=O)Oc1cccc(OC(N)=O)c1`, the T/C under setting [12] was 105 % of control; the T/C under setting [13] was 89 % of control; the T/C under setting [14] was 67 % of control; the T/C (dose: 2400.0 mg/kg/injection, schedule: Q04DX003 (sc), vehicle: water) is 54 % of control.

`COc1cccc2c1C(=O)c1c(O)c3c(c(O)c1C2=O)CC(O)(C(=O)CO)CC3OC1CC(N)C(O)C(C)O1` (configuration not stated): the T/C (dose: 12.0 mg/kg/injection, schedule: Q01DX010 (sc), vehicle: saline) was 71 % of control; the T/C (dose: 24.0 mg/kg/injection, schedule: Q01DX010 (sc), vehicle: saline) is 24 % of control; the T/C (dose: 25.0 mg/kg/injection, schedule: Q01DX010 (sc), vehicle: water) was 71 % of control; the T/C (dose: 37.5 mg/kg/injection, schedule: Q04DX003 (sc), vehicle: water) is 82 % of control; the T/C (dose: 48.0 mg/kg/injection, schedule: Q01DX010 (sc), vehicle: saline) is 31 % of control; the T/C (dose: 50.0 mg/kg/injection, schedule: Q01DX010 (sc), vehicle: water) is 71 % of control. Further, the T/C (dose: 75.0 mg/kg/injection, schedule: Q04DX003 (sc), vehicle: water) was 105 % of control; the T/C (dose: 100.0 mg/kg/injection, schedule: Q01DX010 (sc), vehicle: water) is 39 % of control; the T/C under setting [11] was 193 % of control; the T/C (dose: 200.0 mg/kg/injection, schedule: Q01DX010 (sc), vehicle: water) is 11 % of control; the T/C under setting [12] was 46 % of control.

Regarding `CCC1=C2C(=O)c3ccccc3C2=C(C)S(=O)(=O)O1`, the T/C under setting [7] was 66 % of control, the T/C under setting [8] was 70 % of control, the T/C under setting [9] is 89 % of control and the T/C under setting [10] is 86 % of control.

As to `O=C1N[C@@H]2C(=C[C@H](O)[C@@H](O)[C@H]2O)c2cc3c(c(O)c21)OCO3`, the T/C (dose: 2.5 mg/kg/injection, schedule: Q04DX003 (sc), vehicle: saline with Tween-80) was 97 % of control and the T/C (dose: 5.0 mg/kg/injection, schedule: Q04DX003 (sc), vehicle: saline with Tween-80) is 109 % of control.

For `O=S(=O)(c1ccccc1)N1CN2CCN(C2)C1`, the T/C is 195 % of control (dose: 150.0 mg/kg/injection, schedule: Q04DX003 (sc), vehicle: saline with Tween-80); 106 % of control under setting [8]; 156 % of control under setting [9].

The record behind these values is PubChem BioAssay AID264 (DTP/NCI, 2004).
